Measured values: patent publication US20040266718A1, “Inhibition of specific histone deacetylase isoforms” (priority 2001, published 2004)
d = 2'-deoxy (DNA); m = 2'-O-methyl

What was measured:
[1] = tested on: Human cancer HCT116 cells; assay: cell cycle arrest by FACS; type: cell-based; settings: HCT116, 16 hours; concentration to induce a (G2+M)/S ratio of 2.5
Procedure: Human cancer HCT116 cells were plated at 2×10^5 per 10-cm dish and were left to attach to the dish overnight in the incubator. Cells were treated with small molecule inhibitors at various concentrations (1 uM and 10 uM, typically, dissolved in DMSO) for 16 hours. Cells were harvested by trypsinization and washed once in 1×PBS (phosphate buffered saline). The cells were resuspended in about 200 ul 1×PBS and were fixed by slowly adding 1 ml 70% ethanol at −20° C. and were left at least overnight at −20° C. Fixed cells were centrifuged at low speed (1,000 rpm) for 5 minutes, and the cell pellets were washed again with 1×PBS. Nucleic acids from fixed cells were incubated in a staining solution (0.1% (w/v) glucose in 1×PBS containing 50 ug/ml propidium iodide) (Sigma-Aldridge, Mississauga, Ontario, CA) and RNase A (final 100 units/ml, (Sigma-Aldridge, Mississauga, Ontario, CA) for at least 30 minutes in the dark at 25° C. DNA content was measured by using a fluorescence-activated cell sorter (FACS) machine. Treatment of cells with all HDAC small molecule inhibitors in Table 2 results in a significant accumulation of cancer cell in G2/M phase of the cell cycle and concomitantly reduce the accumulation of cancer cells in S phase of the cell cycle. The ratio of cells in G2/M phase vs. cells in the S. phase was determined. […]

[2] = tested on: human colon cancer HCT116 cells; assay: MTT assay of cell proliferation; type: cell-based; settings: HCT-116, 72 hours
Procedure: Two thousand (2,000) human colon cancer HCT116 cells (ATCC, Manassas, Va. were used in an MTT (3-[4,5-dimethylthiazol-2-yl]-2,5 diphenyl tetrazolium bromide) assay to quantitatively determine cell proliferation and cytotoxicity. Typically, HCT116 cells were plated into each well of the 96-well tissue culture plate and left overnight to attach to the plate. Compounds at various concentrations were added into the culture media (final DMSO concentration 1%) and incubated for 72 hours. MTT solution (obtained from Sigma as powder) was added and incubated with the cells for 4 hours at 37° C. in incubator with 5% CO2. During the incubation, viable cells convert MTT to a water-insoluble formazan dye. Solubilizing buffer (50% N,N-dimethylformamide, 20% SDS, pH 4.7) was added to cells and incubated for overnight at 37C in incubator with 5% CO2. Solubilized dye was quantitated by calorimetric reading at […] using a reference of […]. Optical density values were converted to cell number values by comparison to a standard growth curve for each cell line.

[3] = tested on: cyclin B1 in Human cancer A549 cells; assay: Western blot of cyclin B1 in A549 cells; type: cell-based; settings: 48 hours, FIG. 16
Procedure: (§1) Human cancer A549 cells were treated with AS1, AS2 or MM oligo directed human HDAC1 for 48 hours. Total cell lysates were harvested and analyzed by Western blot using antibodies against human HDAC1, cyclin B1, cyclin A and actin (all from Santa Cruz Biotechnology, Inc., Santa Cruz, Calif.). […] (FIG. 16)

[4] = tested on: human HDAC-1 RNA; assay: antisense screen by Northern blot in T24 cells, HDAC-1; type: cell-based; settings: 100 nM, 24 hours
Procedure: (§2) Briefly, human A549 and/or T24 human bladder carcinoma cells were seeded in 10 cm tissue culture dishes one day prior to oligonucleotide treatment. The cell lines were obtained from the American Type Culture Collection (ATCC) (Manassas, Va.) and were grown under the recommended culture conditions. Before the addition of the oligonucleotides, cells were washed with PBS (phosphate buffered saline). Next, lipofectin transfection reagent (GIBCO BRL Mississauga, Ontario, Calif.), at a concentration of 6.25 μg/ml, was added to serum free OPTIMEM medium (GIBCO BRL, Rockville, Md.), which was then added to the cells. The oligonucleotides to be screened were then added directly to the cells (i.e., one oligonucleotide per plate of cells). Mismatched oligonucleotides were used as controls. The same concentration of oligonucleotide (e.g., 50 nM) was used per plate of cells for each oligonucleotide tested.
Cells were harvested, and total RNAs were analyzed by Northern blot analysis. Briefly, total RNA was extracted using RNeasy miniprep columns (QIAGEN). Ten to twenty μg of total RNA was run on a formaldehyde-containing 1% agarose gel with 0.5 M sodium phosphate (pH 7.0) as the buffer system. RNAs were then transferred to nitrocellulose membranes and hybridized with the indicated radiolabeled DNA probes. Autoradiography was performed using conventional procedures.

[5] = tested on: A549; assay: apoptosis, Cell Death Detection ELISA, A549; type: cell-based, human; settings: OSDN
Procedure: (§3) In order to determine the effect of HDAC OSDNs on cell growth and cell death through apoptosis, A549 or T24 cells, MDAmb231 cells, and HMEC cells (ATCC, Manassas, Va.) were treated with HDAC OSDNs as previously described.
(§4) For the apoptosis study, cells were analyzed using the Cell Death Detection ELISA^Plus kit (Roche Diagnostic GmBH, Mannheim, Germany) according to the manufacturer's directions. Typically, 10,000 cells were plated in 96-well tissue culture dishes for 2 hours before harvest and lysis. Each sample was analyzed in duplicate. ELISA reading was done using a MR700 plate reader (DYNEX Technology, Ashford, Middlesex, England) at 410 nm. The reference was set at 490 nm.

[6] = tested on: T24; assay: apoptosis, Cell Death Detection ELISA, T24; type: cell-based, human; settings: OSDN
Procedure: as §3, §4

[7] = tested on: HMEC; assay: apoptosis, Cell Death Detection ELISA, HMEC; type: cell-based, human; settings: OSDN, normal cells
Procedure: as §3, §4

[8] = tested on: cyclin A in Human cancer A549 cells; assay: Western blot of cyclin A in A549 cells; type: cell-based; settings: 48 hours, FIG. 16
Procedure: as §1

[9] = tested on: MDAmb231; assay: cell growth analysis (trypan blue cell count), MDAmb231; type: cell-based, human; settings: 50 nM, 72 hours
Procedure: as §2, §3
(§5) Cells were harvested and cell numbers counted by trypan blue exclusion using a hemocytometer. Percentage of inhibition was calculated as (100—AS cell numbers/control cell numbers)%.

[10] = tested on: MDAmb231; assay: apoptosis, Cell Death Detection ELISA, MDAmb231; type: cell-based, human; settings: OSDN
Procedure: as §3, §4

[11] = tested on: human HDAC-2 RNA; assay: antisense screen by Northern blot in T24 cells, HDAC-2; type: cell-based; settings: screened as above (T24 cells, 100 nM, 24 hours)
Procedure: Twenty-four phosphorothioate ODNs containing sequences complementary to the 5′ or 3′ UTR of the human HDAC-2 gene (GenBank Accession No. U31814) were screened as above. […] HDAC-2 MM was created as a control; compared to the antisense oligo, it contains a 7-base mismatch.
as §2
(§6) Cells were harvested, and total RNAs were analyzed by Northern blot analysis. Briefly, total RNA was extracted using RNeasy miniprep columns (QIAGEN). […]

[12] = tested on: human cancer cells; assay: cell growth and apoptosis of human cancer cells; type: cell-based; settings: for growth arrest and apoptosis of human cancer cells: text summary of FIGS. 11-13, Tables 4 and 5
Procedure: as §3, §4, §5

[13] = tested on: T24; assay: cell growth analysis (trypan blue cell count), T24; type: cell-based, human; settings: 50 nM, 72 hours
Procedure: as §2, §3, §5

[14] = tested on: HMEC; assay: cell growth analysis (trypan blue cell count), HMEC; type: cell-based, human; settings: 50 nM, 72 hours, normal cells
Procedure: as §2, §3, §5

[15] = tested on: human HDAC-3 RNA; assay: antisense screen by Northern blot in T24 cells, HDAC-3; type: cell-based; settings: screened as above (T24 cells, 100 nM, 24 hours)
Procedure: Twenty-one phosphorothioate ODNs containing sequences complementary to the 5′ or 3′ UTR of the human HDAC-3 gene (GenBank Accession No. AF039703) were screened as above. […] HDAC-3 MM oligonucleotide was created as a control; compared to the antisense oligonucleotide, it contains a 6-base mismatch.
as §2, §6

[16] = tested on: A549; assay: cell growth analysis (trypan blue cell count), A549; type: cell-based, human; settings: 50 nM, 72 hours
Procedure: as §2, §3, §5

[17] = tested on: human HDAC-4 RNA; assay: antisense screen by Northern blot in T24 cells, HDAC-4; type: cell-based; settings: screened as above (T24 cells, 100 nM, 24 hours)
Procedure: Seventeen phosphorothioate ODNs containing sequences complementary to the 5′ or 3′ UTR of the human HDAC-4 gene (GenBank Accession No. AB006626) were screened as above. […] HDAC-4 MM1 and MM2 oligonucleotides were created as controls; compared to the antisense oligonucleotides, they each contain a 6-base mismatch.
as §2, §6

[18] = tested on: human HDAC-5 RNA; assay: antisense screen by Northern blot in T24 cells, HDAC-5; type: cell-based; settings: screened as above (T24 cells, 100 nM, 24 hours)
Procedure: Thirteen phosphorothioate ODNs containing sequences complementary to the 5′ or 3′ untranslated regions of the human HDAC-5 gene (GenBank Accession No. AF039691) were screened as above.
as §2
Cells were harvested, and total RNAs were analyzed by Northern blot analysis. Briefly, total RNA was extracted using RNeasy miniprep columns (QIAGEN). Ten to twenty μg of total RNA was run on a formaldehyde-containing 1% agarose gel with 0.5 M sodium phosphate (pH 7.0) as the buffer system. […]

[19] = tested on: human HDAC-6 RNA; assay: antisense screen by Northern blot in T24 cells, HDAC-6; type: cell-based; settings: screened as above (T24 cells, 100 nM, 24 hours)
Procedure: Thirteen phosphorothioate ODNs containing sequences complementary to the 5′ or 3′ untranslated regions of the human HDAC-6 gene (GenBank Accession No. AJ011972) were screened as above. […] HDAC-6 MM oligo was created as a control; compared to the antisense oligo, it contains a 7-base mismatch.
as §2, §6

Molecule: CC(/C=C/C(=O)Nc1ccccc1N)=C\C(C)C(=O)c1ccc(N(C)C)cc1 (stereo not drawn) [Compound 1]
- Cell Cycle Arrest EC [1]: 2 µM
- EC50 [2]: 3000 nM

Molecule: HDAC-1 AS1: antisense oligonucleotide to human HDAC1, 5′-GAAACGTGAGGGACTCAGCA-3′ (SEQ ID NO:17) (chemistry not given here)
- expression of cyclin B1 [3]: repress expression
- antisense activity to human HDAC-1 (RNA expression, Northern blot) [4]: antisense activity
- Apoptosis After 48 Hour Treatment A549 [5]: + (2-3X fold)
- Apoptosis After 48 Hour Treatment T24 [6]: − (< = 2x fold over non-specific background)
- Apoptosis After 48 Hour Treatment HMEC [7]: − (< = 2x fold over non-specific background)
- expression of cyclin A [8]: repress expression

Molecule: HDAC-1 AS2: antisense oligonucleotide to human HDAC1, 5′-GGAAGCCAGAGCTGGAGAGG-3′ (SEQ ID NO:18) (chemistry not given here)
- expression of cyclin B1 [3]: repress expression
- antisense activity to human HDAC-1 (RNA expression, Northern blot) [4]: antisense activity
- expression of cyclin A [8]: repress expression

Molecule: HDAC-2 AS: antisense oligonucleotide to human HDAC2, 5′-GCTGAGCTGTTCTGATTTGG-3′ (SEQ ID NO:20) (chemistry not given here)
- Growth Inhibition (AS vs. MM) MDAmb231 [9]: − (no inhibition)
- Apoptosis After 48 Hour Treatment A549 [5]: − (< = 2x fold over non-specific background)
- Apoptosis After 48 Hour Treatment MDAmb231 [10]: − (< = 2x fold over non-specific background)
- antisense activity to human HDAC-2 (RNA expression, Northern blot) [11]: antisense activity
- Apoptosis After 48 Hour Treatment T24 [6]: − (< = 2x fold over non-specific background)
- Apoptosis After 48 Hour Treatment HMEC [7]: − (< = 2x fold over non-specific background)
- cancer cell growth inhibition [12]: minimal effect

Molecule: HDAC-3 AS: antisense oligonucleotide to human HDAC3, 5′-CGCTTTCCTTGTCATTGACA-3′ (SEQ ID NO:22) (chemistry not given here)
- Growth Inhibition (AS vs. MM) MDAmb231 [9]: − (no inhibition)
- Growth Inhibition (AS vs. MM) T24 [13]: − (no inhibition)
- Growth Inhibition (AS vs. MM) HMEC [14]: − (no inhibition)
- Apoptosis After 48 Hour Treatment A549 [5]: − (< = 2x fold over non-specific background)
- Apoptosis After 48 Hour Treatment MDAmb231 [10]: − (< = 2x fold over non-specific background)
- Apoptosis After 48 Hour Treatment T24 [6]: − (< = 2x fold over non-specific background)
- Apoptosis After 48 Hour Treatment HMEC [7]: − (< = 2x fold over non-specific background)
- growth arrest and apoptosis of human cancer cells [12]: no effect
- antisense activity to human HDAC-3 (RNA expression, Northern blot) [15]: antisense activity
- Growth Inhibition (AS vs. MM) A549 [16]: − (no inhibition)

Molecule: HDAC-4 AS2: antisense oligonucleotide to human HDAC4, 5′-TACAGTCCATGCAACCTCCA-3′ (SEQ ID NO:26) (sugars from the 5' end m4 d12 m4, all phosphorothioate, methylation of C and T or U not given here)
- antisense activity to human HDAC-4 (RNA expression, Northern blot) [17]: antisense activity

Molecule: HDAC-5 AS: antisense oligonucleotide to human HDAC5, 5′-CTTCGGTCTCACCTGCTTGG-3′ (SEQ ID NO:28) (sugars from the 5' end m4 d12 m4, all phosphorothioate, methylation of C and T or U not given here)
- antisense activity to human HDAC-5 (RNA expression, Northern blot) [18]: antisense activity

Molecule: HDAC-6 AS: antisense oligonucleotide to human HDAC6, 5′-CAGGCTGGAATGAGCTACAG-3′ (SEQ ID NO:29) (chemistry not given here)
- Growth Inhibition (AS vs. MM) T24 [13]: − (no inhibition)
- Growth Inhibition (AS vs. MM) HMEC [14]: − (no inhibition)
- Apoptosis After 48 Hour Treatment A549 [5]: − (< = 2x fold over non-specific background)
- Apoptosis After 48 Hour Treatment MDAmb231 [10]: − (< = 2x fold over non-specific background)
- Apoptosis After 48 Hour Treatment T24 [6]: − (< = 2x fold over non-specific background)
- antisense activity to human HDAC-6 (RNA expression, Northern blot) [19]: antisense activity
- Apoptosis After 48 Hour Treatment HMEC [7]: − (< = 2x fold over non-specific background)
- growth arrest and apoptosis of human cancer cells [12]: no effect
- Growth Inhibition (AS vs. MM) A549 [16]: − (no inhibition)
